Results on ten compounds are retold here after patent US7959954B2, “Pharmaceutical composition for treatment of diabetes and dyslipidemia” (Council of Scientific and Industrial Research, priority 2005, dated 2011).

In experiment [1] the test system is dislipidemic hamster. As to the kind of experiment: Antidyslipidemic activity in dislipidemic (high fat diet) hamster model.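 Further: male golden Syrian hamsters on high fat diet for 10 days, oral treatment days 4–10, non-fasted plasma sampled on day 10, compared with vehicle-treated high fat diet controls.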
Description: Test Models used for the Evaluation of the Antidyslipidemic Activity:
Male golden Syrian Hamsters weighing 120-130 g were divided into dyslipidemic and dislipidemic plus drug treated groups of the eight animals in each groups were used. Feeding with high fat diet (supplied by NOVO—NORDISK, Dennmark, Cat produced Dyslipidemia. No-99122211). Dislipidemic hamsters had free access to HFD and water ad-libitum. throughout the experiment for ten days. The test sample was fed orally at a dose of 250 mg./kg. from day-4 to day-10 (7 days) in the HFD hamsters. Normal hamsters fed with HFD and given drug vehicle only, served as control animals. Body weight of each animal and diet intake of each animal group was recorded daily to check the effect of the drug on food intake and body weight of the animals. At the end of the experiment i.e. on day 10th, the blood of non fasted animals were withdrawn in two sets of tubes in which one set contains 120 μl NaF (4.5 mg./ml) and after 15 min. in cold, plasma was separated. Biochemical analysis of plasma with out NaF was performed on the same day for Triglycerides (TG) total Cholesterol (TC) HDL-Cholesterol using enzymatic diagnostic kits. Similarly the plasma containing NaF Glucose was assayed for glucose, glycerol and free Fatty acids (FFA) on Synchron CX-5. Clinical System Beckmann Coulter Instrument.
The subject of experiment [2] is sucrose challenged Streptozotocin induced diabetic rats. As to the kind of experiment: STZ-s model, sucrose challenged low dosed Streptozotocin induced diabetic rats. It counts as in vivo, Male albino rats of Sprague Dawley strain. Particulars: for STZ-s model % change 5 h / STZ-s model % change 24 h: dose 25 mg/kg. The protocol:
[formula] […] [B] (ii) STZ-s Procedure
Male albino rats of Sprague Dawley strain of the body weight 160±20 g were selected for this study. Streptozotocin (Sigma, USA) was dissolved in 100 mM citrate buffer pH 4.5 and calculated amount of the fresh solution was injected to overnight fasted rats (45 mg./Kg.) intraperitonially. Blood was checked 48 hours later by glucosetrips and animals showing blood glucose values between 144 to 270 mg./dl. (8 to 15 mM) were included in the experiments and termed diabetic. The diabetic animals were divided into groups comprising 5 to 6 animals in each group. […] The animals of the control group were given an equal amount of 1.0% gum acacia. A sucrose load of the 2.5 g/Kg of the body weight was given after 30 minutes of the drug administration. After 30 minutes of the post sucrose load blood glucose level was again checked by glucostrips at 30, 60, 90, 120, 180, 240, 300 minutes and 24 hours respectively. […] The food but not the water was withheld from the cages during the experimentation. Comparing the AUC of experimental and control groups determined the percent of antihyperglycemic activity. Statistical comparison between groups was made by the Student's “t” test.

Experiment [3] concerns STZ injected rats. As to the kind of experiment: STZ model, antihyperglycemic activity. The class given is in vivo, Sprague-Dauley [SD] strain male albino rats. Particulars: dose 100 mg/kg. On the procedure:
Drug metformate was administered half an hour before glucose was given. […] Statistical significance was done by AUC-method. [B] (i) STZ-Model Procedure Sprague-Dauley [SD] strain male albino rats of body weight 160±20 g were taken for study. Animals in 3 cage were kept for 7 days under standard experimental conditions before the experiment. Animals were given standard rat-pellet diet and tap-water ad-libitum. Day ‘0’-Day before experiment, animals were kept for overnight starvation. […] USA] was injected intraperitoneally to all the starved animals at a dose of 60 mg/kg, dissolved in 100 m M citrate buffer, pH 4.5. Day ‘2’ rats remained as such in the same conditions. Food pellets were removed on the penultimate day at 5:00 P.M. in the evening and animals were kept on over night starvation. […] Blood was taken from tail of the rats by stab-techniques and the glucose level was estimated using “Advantage Glucometer” of Boehringer Mannheim Co, USA. […] Group-I was kept only for control [STZ-injection were given only]. Group II were treated with STZ+test samples. […] [formula] The extract/fraction/compounds found active were statistically analyzed to determine area under curve [AUC] by plotting the blood-glucose values against time. [B] (ii) STZ-s Procedure

Experiment [4] deals with db/db mice. Description: db/db mice antihyperglycemic activity (day 6 post prandial, day 10 OGTT). The class given is in vivo, C57BL/KsBom-db mice. The source says: (§1) The db/db mouse is a well-characterized model of type-2 diabetes. The background for the db/db mouse is the C57BL/Ks strain. The major deficiency of the C57BL.Ks Bom-db mouse (db/db) is lack of a functional leptin receptor. This leads to defective leptin signaling and a complete lack of feedback from leptin. […] The db/db mouse develops NIDDM from around week 10. The disease is stable until week 20, where destruction of pancreatic β-cells can be recognized clinically as decreasing levels of plasma insulin and very severe […]. The db/db mouse has a maximal life span of 9-12 months. The advantage of using male mice for experimental purposes is that the fluctuations in plasma parameters are less than in females where the oestrogens cycle affects the clinical diabetes. The optimal age of db/db mice used for experiments will be from week-12 to 18 when they have developed NIDDM with diabetic dyslipidemia but still have functional β-cells in the pancreas. C57BL/KsBom-db mice 12-18 weeks, 40-50 g bred in the animal house of CDRI, Lucknow. 10 mice were housed in groups of (5 males and 5 females) were housed in groups of 5 individuals (same sex) in a room controlled for temperature (23±2.0° C.) and 12/12 hours light/dark cycle (light on 6.00AM.). Body weight was measured daily from day 1 to day 10. All animals had free access to fresh water and to normal chow except on the days of the post prandial protocol day 6 and during the overnight fast before the OGTT on day 10. The animals always had access to water during experimental periods. Blood glucose was checked every morning up till day 5. On day 6 post prandial protocol was employed, in this method blood glucose was checked at −0.5 h and 0 h. The test samples were given to the treatment group whereas vehicle received the only gum acacia (1.0%); the blood glucose was again checked at 1, 2, 3, 4 and 6 h posttest drug treatment. On day 8, blood was collected for serum insulin and lipid profile measurements and finally on day 10 an oral glucose tolerance test (OGTT) was performed after an overnight fasting. Blood glucose was measured at 0.0 min. post treatment, at this juncture glucose solution was given at a dose of 3 g./Kg. to all the groups including vehicle; the profile of blood glucose was checked at 30, 60, 90 and 120 minutes post glucose administration.
Table-5-a represents the antihyperglycemic activity profile of 50% Aq.-EtOH extract and chloroform soluble fraction of the aq.-ethanolic extract and the standard drug Roziglitazone in hyperglycemic and hyperinsulinemic db/db mice. The results of the antidiabetic evaluations of the epicarp extracts/fractions/compounds in GLM and STZ models are given in table-1

In experiment [5] the test system is db/db mice. Description: Anti-dislipidemic activity (lipid profile) in db/db mice. The class given is in vivo, C57BL/KsBom-db mice. Particulars: dose 10 mg/Kg.
Excerpt: as §1, with “The test samples were given to the treatment group whereas vehicle received the only gum acacia (1.0%); the blood glucose was again checked at 1, 2, 3, 4 and 6 h posttest drug treatment. On day 8, blood was collected for serum insulin and lipid profile measurements and finally on day 10 an oral glucose tolerance test (OGTT) was performed after an overnight fasting.” left out

Marks after values point to notes of the source that are not given here.

With `CC(C)OC(=O)C(C)(C)Oc1ccc(C(=O)c2ccc(Cl)cc2)cc1` [Fenofibrate, reference compound], in experiment [1] (dose 108.24 mg/kg (300 μmole)), the “CHOL (Cholesterol)” value is listed as −18* %, the “FFA (Free Fatty Acid)” value is reported as −20* %, the “GLU (Glucose)” value was −22% and the “GLY (Glycerol)” value is listed as −36** %. In experiment [1] (dose 108.24 mg/kg (300 μmole)), the “H/C (High density lipoprotein/cholesterol ratio)” value is listed as “+10%” and the “TG (Triglycerides)” value is given as −42* %.
In the case of `CC(=O)O[C@@H]1C[C@H]2C(C)(C)C(=O)C=C[C@]2(C)[C@H]2CC[C@@]3(C)[C@H](c4ccoc4)OC(=O)[C@H]4O[C@]43[C@@]21C` [Gedunin], the “activity in STZ-s model” value in experiment [2] (rat, in vivo) is listed as “active”. Besides, in experiment [1] (dose 25 mg/kg), the “CHOL (Cholesterol)” value is reported as “+14%”, the “FFA (Free Fatty Acid)” value is given as −36*** %, the “GLU (Glucose)” value is recorded as −28*** % and the “GLY (Glycerol)” value is −22%. In experiment [1] (dose 25 mg/kg), the “H/C (High density lipoprotein/cholesterol ratio)” value is “+11%”, the “HDL (High Density Lipoprotein)” value was “+27* %” and the “TG (Triglycerides)” value is −47*** %. For the same compound, in experiment [1] (hamster, in vivo), the “activity in antidislipidemic hamster model” value is “active”. Besides, the “In STZ model % lowering” value in experiment [3] was determined as 10.5%. For the same compound, in experiment [3] (listed as gedunin), the “In STZ model % lowering” value is given as “promising activity”.
As for `CN(C)C(=N)N=C(N)N` [Metformin, reference compound], the “STZ-s model % change 5 h” value in experiment [2] (5 h) was −23.6** %. Besides, the “STZ-s model % change 24 h” value in experiment [2] (24 h) is on record as −26.5** %. Moreover, the “% Antihyperglycemic activity 5 h” value in experiment [2] (dose 100 mg/Kg, 5 h) was 23.6* ** %. Also, the “% Antihyperglycemic activity 24 h” value in experiment [2] (dose 100 mg/Kg, 24 h) is reported as 26.5* * * %.
Take `CCCCCCCCCCCCCCCC(=O)O` [Palmitic acid]: in experiment [2] (dose 100 mg/Kg), the “% Activity in STZ-s model” value is on record as −5.6%.
With `CN(CCOc1ccc(CC2SC(=O)NC2=O)cc1)c1ccccn1` (stereo not shown) [Roziglitazone], the “antidiabetic effect in db/db mice” value in experiment [4] (10 mg/Kg) was “same order of activities”. The “% Antihyperglycemic activity Day 6” value in experiment [4] (dose 3.0 mg/Kg, Day 6) is 6.24* %. The “% Antihyperglycemic activity Day 10” value in experiment [4] (dose 3.0 mg/Kg, Day 10) is 48.5* ** %. For the same compound, the “Antihyperglycemic activity Day 6” value in experiment [4] (dose 10 mg/Kg, Day 6) is −13.8 **. Moreover, the “Antihyperglycemic activity Day 10” value in experiment [4] (dose 10 mg/Kg, Day 10) is given as −27.4 ***. In experiment [5], the “Anti-dislipidemic activity CHOL” value was −5.5, the “Anti-dislipidemic activity HDL-C” value is listed as “+7.14” and the “Anti-dislipidemic activity TG” value is recorded as −16.0.
As for `CC[C@H](CC[C@@H](C)[C@H]1CC[C@H]2[C@@H]3CC=C4C[C@@H](O[C@@H]5O[C@H](CO)[C@@H](O)[C@H](O)[C@H]5O)CC[C@]4(C)[C@H]3CC[C@]12C)C(C)C` [β-Sitosterol-β-D-glucoside], the “% Activity in STZ-s model” value in experiment [2] (dose 100 mg/Kg) is recorded as “+10.1%”.
As for `CC[C@H](CC[C@@H](C)[C@H]1CC[C@H]2[C@@H]3CC=C4C[C@@H](O)CC[C@]4(C)[C@H]3CC[C@]12C)C(C)C` [β-Sitosterol], the “STZ-s model % change 5 h” value in experiment [2] (5 h) is given as “Nil”. In addition, in experiment [2] (24 h), the “STZ-s model % change 24 h” value was “Nil”. In experiment [1] (dose 25 mg/kg), the “FFA (Free Fatty Acid)” value is −38*** %, the “GLY (Glycerol)” value is −14%, the “H/C (High density lipoprotein/cholesterol ratio)” value is on record as −7% and the “HDL (High Density Lipoprotein)” value is listed as −5%. For the same compound, in experiment [1] (dose 25 mg/kg), the “TG (Triglycerides)” value is on record as −7%.
As for Photogedunin, the “% Activity in STZ-s model” value in experiment [2] (dose 100 mg/Kg) is reported as “+30.5%”.
Turning to Xyloccensin-E, in experiment [2] (5 h), the “STZ-s model % change 5 h” value is recorded as −6.91%. Moreover, in experiment [2] (24 h), the “STZ-s model % change 24 h” value is on record as −0.34%. For the same compound, in experiment [1] (dose 10 mg/kg), the “CHOL (Cholesterol)” value is reported as −18%, the “FFA (Free Fatty Acid)” value is reported as −43* %, the “H/C (High density lipoprotein/cholesterol ratio)” value is recorded as −10% and the “HDL (High Density Lipoprotein)” value is listed as −25%. In addition, in experiment [1] (dose 10 mg/kg), the “TG (Triglycerides)” value is −22%.
Take Xyloccensin-I: the “STZ-s model % change 5 h” value in experiment [2] (5 h) was “Nil”. For the same compound, the “STZ-s model % change 24 h” value in experiment [2] (24 h) is recorded as “Nil”. For the same compound, in experiment [1] (dose 25 mg/kg), the “FFA (Free Fatty Acid)” value is recorded as −17%, the “GLY (Glycerol)” value is −5%, the “H/C (High density lipoprotein/cholesterol ratio)” value is −7% and the “HDL (High Density Lipoprotein)” value is listed as −5%.
